From article PMC10671360, “In Silico and In Vitro Study towards the Rational Design of 4,4′-Disarylbisthiazoles as a Selective α-Synucleinopathy Biomarker” (International Journal of Molecular Sciences, 2023)
Entries after “also recorded” stand apart in the source; their conditions may differ.

How the values were obtained:
[1] = design: method as in PMID 35572127; settings: cited from earlier work
Aβ1−42 fibrils = target: T1, Aβ1−42 fibrils (Homo sapiens, UniProt P05067); assay: Competition binding assay against [^3H]PiB, Aβ1−42 fibrils; settings: read-out: Ki Aβ
T1 construct: 1 mg of β-amyloid1–42 peptide (Abcam, Cambridge, UK); purchased Abcam
T1 sequence (P05067 672-713): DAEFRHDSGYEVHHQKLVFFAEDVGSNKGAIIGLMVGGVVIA
Procedure: After the dissolution of 1 mg of β-amyloid1–42 peptide (Abcam, Cambridge, UK) in 50 μL of DMSO, 925 μL of Milli-Q® water was added to it, and the mixture was stirred. Finally, 25 μL of 1M Tris HCl, pH 7.4 was added to bring the final peptide concentration to 1 mg/mL. The mixture was then left to incubate at 37 °C for 30 h with shaking at 900 rpm. To separate the non-aggregated monomers from the formed fibrils, the reaction mixture was centrifuged at 12,000× g for 5 min, and the resulting pellet was washed three times with 500 μL of 20 mM Tris-HCl, pH 7.4. The supernatants from the three centrifugation steps were combined, and the concentration of the monomer in the resulting supernatant was determined in a BCA assay (Thermo Fisher Scientific, Waltham, MA, USA) (with a BSA standard curve). Determination of the concentration of fibrils formed was carried out by subtracting the amount of β-amyloid1−42 peptide monomer in the supernatant from the initial amount used for fibrillation.
(§1) The pellets of the fibrils obtained above (Section 4.2.1) were resuspended in 20 mM of Tris-HCl, pH 7.4 and diluted as needed for the binding assays.
(§2) A fixed concentration of [^3H]DCVJ (10 nM) and α-synuclein aggregates (125 nM), prepared as described above (Section 4.2.3), was used with different final concentrations of the DABTAs from 0.01 to 100 nM (see SI Figure S1). The experiment was carried out in quintuplicate for each concentration. The mixture was incubated for 2 h in a final volume of 200 μL per well after dilution with 20 mM of Tris-HCl, pH 7.4. The incubated mixtures were filtered through a Perkin Elmer GF/B glass filter via a TOMTEC cell harvester and immediately washed thrice with 1 mL of deionized water. The filters containing the bound ligands were dried and afterwards mixed with 3 mL of BetaPlate Scint solution (Perkin Elmer Life Sciences, Waltham, MA, USA) and left there for 2 h before counting in a Wallac 1450 MicroBeta TriLux Liquid Scintillation Counter (PerkinElmer Life Sciences, Waltham, MA, USA). For the determination of the inhibition constants, data were analyzed using GraphPad Prism software (version 7.0) to obtain IC50 values by fitting the data to the equation Y = bottom + (top − bottom)/(1 + 10(x − log IC50)). Ki values were calculated from IC50 values using the equation Ki = IC50/(1 + [radioligand]/Kd). […] Further protocol was carried out as for [^3H]DCVJ (see SI Figure S3).
Further procedures followed the same already described in Section 4.2.3.1 (See SI Figure S4).

[2] = target: T2, recombinant α-syn fibrils (Homo sapiens, UniProt P37840); assay: Competition binding assay against [^3H]PiB, α-syn fibrils; settings: for Selectivity Aβ/α-syn / Selectivity tau/α-syn: ratio of Ki, [^3H]PiB was used
T2 construct: made in house

[3] = target: T2, recombinant α-syn fibrils; assay: Competition binding assay against [^3H]DCVJ, α-syn fibrils; settings: ratio of Ki, [^3H]DCVJ was used
Procedure: The incubation of purified recombinant α-synuclein monomer (10 mg/mL) obtained as described by Uzuegbunam was carried out in PBS (pH 7.4) at 37 °C. The solution was left shaking at 900 rpm in an Eppendorf Thermomixer for up to 84 h. Determination of the concentration of the formed fibrils (α-syn) was carried out following the centrifugation of the reaction vial at 12,000× g for 5 min. The pellet obtained was washed thrice with 20 mM of Tris-HCl, pH 7.4. The supernatants from the three centrifugation steps were combined, and the concentration of the monomer in the resulting supernatant was determined in a BCA assay (Thermo Fisher Scientific, Waltham, MA, USA) (with a BSA standard curve). Determination of the concentration of α-syn was carried out by subtracting the amount of α-synuclein monomer in the supernatant from the initial amount used for fibrillation.
as §1, §2

[4] = Solubility in the incubation medium of the binding assays; format: physicochemical; settings: incubation buffer of the binding assays
tau = tau (Homo sapiens, UniProt P10636); design: method as in PMID 12657667, PMID 32098280, PMID 18221373; settings: [^3H]PiB; cited from earlier work
tau, sequence (P10636 2-758): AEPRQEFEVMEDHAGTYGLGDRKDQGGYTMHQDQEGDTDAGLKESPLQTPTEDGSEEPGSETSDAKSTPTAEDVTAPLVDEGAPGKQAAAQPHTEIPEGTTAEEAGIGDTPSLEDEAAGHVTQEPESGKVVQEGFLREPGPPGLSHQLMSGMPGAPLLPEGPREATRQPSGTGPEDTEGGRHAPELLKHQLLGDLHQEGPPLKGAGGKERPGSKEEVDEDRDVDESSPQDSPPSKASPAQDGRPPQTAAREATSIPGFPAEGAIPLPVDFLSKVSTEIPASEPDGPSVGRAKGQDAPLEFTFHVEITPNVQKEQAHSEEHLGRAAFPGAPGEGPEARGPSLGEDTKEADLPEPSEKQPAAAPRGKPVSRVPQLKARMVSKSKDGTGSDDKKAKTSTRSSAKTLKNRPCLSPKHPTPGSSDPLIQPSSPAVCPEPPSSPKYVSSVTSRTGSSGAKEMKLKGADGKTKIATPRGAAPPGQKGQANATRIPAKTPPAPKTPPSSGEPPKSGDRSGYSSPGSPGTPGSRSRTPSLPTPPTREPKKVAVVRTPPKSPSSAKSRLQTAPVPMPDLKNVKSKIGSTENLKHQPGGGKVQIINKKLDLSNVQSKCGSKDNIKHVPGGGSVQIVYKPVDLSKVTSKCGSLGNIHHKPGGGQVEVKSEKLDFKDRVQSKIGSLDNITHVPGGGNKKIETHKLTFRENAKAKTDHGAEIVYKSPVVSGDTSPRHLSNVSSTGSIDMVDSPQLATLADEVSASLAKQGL

α-syn = α-syn (Homo sapiens, UniProt P37840); design: method as in PMID 12657667, PMID 32098280, PMID 18221373; settings: [^3H]PiB; cited from earlier work
tau fibrils = tau fibrils (Homo sapiens, UniProt P10636); assay: Competition binding assay against [^3H]PiB, tau fibrils
tau fibrils, sequence (P10636 2-758): as above
Procedure: as §2, with “Recombinant tau monomer (R&D systems, Minneapolis, MN, USA) was dissolved in 20 mM of Tris HCl, pH 8.0, 100 mM of NaCl, 25 μM of low-MW heparin, and 0.5 mM of dithiothreitol to a final concentration of 300 µg/mL. The mixture was incubated with shaking at 900 rpm at 37 °C for 48 h. To separate the non-aggregated monomers from the formed fibrils, the reaction mixture was centrifuged at 12,000× g for 5 min, and the resulting pellet was washed three times with 500 μL of 20 mM Tris-HCl, pH 7.4. The supernatants from the three centrifugation steps were combined, and the concentration of the monomer in the resulting supernatant was determined in a BCA assay(Thermo Fisher Scientific, Waltham, MA, USA) (with a BSA standard curve). Determination of the concentration of fibrils formed was carried out by subtracting the amount of tau peptide monomer in the supernatant from the initial amount used for fibrillation. The pellets of the fibrils obtained above (Section 4.2.1) were resuspended in 20 mM of Tris-HCl, pH 7.4 and diluted as needed for the binding assays. A fixed” for “A fixed”, “Figure S3). […] Further procedures followed the same already described in Section 4.2.3.1 (See SI Figure S4).” for “Figure S3).”

Compound | brain uptake and washout [1] | Ki (Aβ1−42 fibrils) [nM] | Ki [2] [nM] | Selectivity Aβ/α-syn [2] | Selectivity tau/α-syn [2] | Selectivity Aβ/α-syn [3] | Selectivity tau/α-syn [3] | solubility in the incubation medium [4] | Kd (tau) [nM] | Kd (α-syn) [nM] | Ki (tau fibrils) [nM]
Fc1ccc(-c2csc(-c3nc(-c4cnc5c(c4)OCO5)cs3)n2)cn1 [d8, 6-(4′-(6-Fluoropyridin-3-yl)-[2,2′-bithiazol]-4-yl)-[1,3]dioxolo[4,5-b]pyridine] | excellent brain uptake and washout | 127 | 1.01 | 125.8 | >990.1 | 3863.0 | >10,000.0 |  |  |  | 
COc1ccc(-c2csc(-c3nc(-c4cnc5c(c4)OCO5)cs3)n2)cc1OC [f18, 6-(4′-(3,4-Dimethoxyphenyl)-[2,2′-bithiazol]-4-yl)-[1,3]dioxolo[4,5-b]pyridine] |  |  | 4.99 |  |  |  |  | low solubility; also recorded: decreased solubility |  |  | 
[3H]C([3H])([3H])Nc1ccc(-c2nc3ccc(O)cc3s2)cc1 [[^3H]PiB] |  |  |  |  |  |  |  |  | 117 | 4.9 | 
Fc1ccc(-c2csc(-c3nc(-c4ccc5c(c4)OCO5)cs3)n2)cn1 [d6, 4-(Benzo[d][1,3]dioxol-5-yl)-4′-(6-fluoropyridin-3-yl)-2,2′-bithiazole] | excellent brain uptake and washout | 151 | 2.51 | 60.1 | 318.2 | 196.0 | 798.3 |  |  |  | 799
